Assay results from article PMC8126888 (RSC Medicinal Chemistry, 2020).
pIC50: −log10 of the molar value. Where two headings read alike, the source gives them in different places.

How the values were obtained:
[1] = tested on: primary peritoneal mouse macrophages (PMM); conditions: PMM IC50 / L. infantum IC50
in vitro [2] = conditions: Swiss, mouse
in vitro [3] = conditions: human, microsomes
in vitro [4] = conditions: mouse, microsomes; for microsomal CLint at 0.5 μM: pH 7.4, MLM CLint, mouse liver microsomes
physchem = conditions: HPLC, Ascentis Express RP Amide column
in vitro [5] = conditions: human
[6] = tested on: Leishmania infantum MHOM/MA(BE)/67/ITMAP263 intracellular amastigotes; assay: microbe, parasite or virus in culture; conditions: Macrophage, in Mus musculus
[7] = tested on: Trypanosoma cruzi, Tulahuen CL2, beta-galactosidase strain; assay: microbe, parasite or virus in culture; conditions: MRC5, read-out: T. cruzi Tulahuen C4 (LacZ) IC50
[8] = tested on: primary peritoneal mouse macrophages (PMM); assay: cells; conditions: Macrophage, read-out: PMM pIC50 (converted)
in vitro [9] = conditions: human, PMA-differentiated THP-1 cells
[10] = tested on: Leishmania infantum (MHOM/MA/67/ITMAP-263) intracellular amastigotes in THP-1; assay: microbe, parasite or virus in culture; conditions: THP-1, 120 h, read-out: Intracellular activity pIC50 L. inf. in THP-1 (converted)
[11] = tested on: Leishmania infantum MHOM/MA(BE)/67/ITMAP263 intracellular amastigotes; conditions: reference drug in the intracellular Leishmania amastigote assay
[12] = pH 7.4, HLM CLint, human liver microsomes
[13] = read-out: L. Inf. pIC50, from L. infantum intracellular amastigote IC50 (converted)
[14] = read-out: L. infantum MHOM/MA(BE)/67/ITMAP263 intracellular amastigotes IC50
[15] = pH 7.4, Microsome Clint,u Human, Table 2, intrinsic in vitro clearance, liver microsomes
[16] = pH 7.4, elog D, HPLC measured log D, pH 7.4
[17] = read-out: L. inf. pIC50, intracellular amastigotes in PMM (converted), geometric mean of a minimum of two experiments ± standard error

SMILES	SI (vs PMM) [1]	pIC50 (in vitro [2])	microsomal CLint at 0.5 μM (in vitro [3]; [12]) [µL/min/mg]	microsomal CLint at 0.5 μM (in vitro [4]) [µL/min/mg]	chromatographic logD (physchem; pH 7.4, eLogD)	CC50 at 3 days (in vitro [5]) [µM]	IC50 [6, 13] [µM]	pIC50 [6, 14]	pIC50 [7]	IC50 [8] [µM]	microsomal CLint at 0.5 μM (in vitro [3]; [15]) [µL/min/mg]	chromatographic logD (physchem; [16])	IC50 at 120 h (in vitro [9]) [µM]	IC50 [6, 17] [µM]	IC50 [10] [µM]	pIC50 [11]	pIC50 ([6]; reference drug in the intracellular Leishmania amastigote assay)	microsomal CLint at 0.5 μM (in vitro [3]; pH 7.4, Microsome Clint Human, intrinsic in vitro clearance, liver microsomes) [µL/min/mg]	microsomal CLint at 0.5 h, 0.5 µM (in vitro [3]; [15]) [µL/min/mg]	microsomal CLint at 0.5 h, 0.5 µM (in vitro [4]; pH 7.4, Microsome Clint,u Mouse, Table 2, intrinsic in vitro clearance, liver microsomes) [µL/min/mg]
COCCN(C(C)=O)c1ccc(S(=O)(=O)N(CCOC)Cc2ccccc2)cc1 [DNDI0003366101]	1	< 4.19	73	227	3.1	> 64	> 64	< 4.19	< 4.19											
O=S(=O)(c1ccccc1OC(F)(F)F)N(Cc1ccccc1)Cc1ccccc1 [DNDI0003366074]	30	4.49	93	689		> 64	1.07	5.97	5.20											
COc1ccc(F)cc1S(=O)(=O)N(Cc1ccccc1)Cc1ccccc1 [DNDI0003366071]	47	< 4.19	955			> 64	1.38	5.86	5.17											
CCN(Cc1ccccn1)S(=O)(=O)c1cc(OC)ccc1OC [DNDI0003366095]	1	< 4.19	118	2190	2.7	> 64	43.7	4.36	< 4.19											
COc1ccc(C#N)cc1S(=O)(=O)N(Cc1ccccc1)Cc1cnc(C(F)(F)F)nc1 [Compound 49]										> 64.6	100	3.8	> 64.6	3.89	61.7					
COCCN(Cc1ccccc1)S(=O)(=O)c1cc(OC)ccc1OC [DNDI0003365566]	31	< 4.19	253			39.4	2.09	5.68	4.48											
COc1ccc(OC)c(S(=O)(=O)N(C)Cc2ccc(F)cc2)c1 [DNDI0003366066]	5	< 4.19	414			> 64	11.7	4.93	4.57											
CCN(Cc1ccccc1)S(=O)(=O)c1cc(F)ccc1OC [DNDI0003366070]	6	< 4.19	383		3.9	49.6	11	4.96	4.55											
COCCN(Cc1ccccc1)S(=O)(=O)c1ccc(NC(C)=O)cc1 [DNDI0003366100]	1	< 4.19	424	29	3.2	> 64	> 64	< 4.19	< 4.19											
COc1ccc(OC)c(S(=O)(=O)N(Cc2ccc(F)cc2)Cc2ccc(F)cc2)c1 [DNDI0003366069]	119	< 4.19				> 64	0.537	6.27	5.20											
COc1ccc(Cl)cc1S(=O)(=O)N(CCN(C)C)Cc1ccccc1 [DNDI0003366090]	7	4.34	1190	120	4	26.7	6.17	5.21	4.49											
C[C@@H]1[C@H](O)[C@@H](C)/C=C/C=C/C=C/C=C/C=C/C=C/C=C/[C@H](O[C@@H]2O[C@H](C)[C@@H](O)[C@H](N)[C@@H]2O)C[C@@H]2O[C@](O)(C[C@@H](O)C[C@@H](O)[C@H](O)CC[C@@H](O)C[C@@H](O)CC(=O)O[C@H]1C)C[C@H](O)[C@H]2C(=O)O [Amphotericin B, reference compound]															1.95					
CCN(Cc1ccccc1)S(=O)(=O)c1cc(F)ccc1F [DNDI0003364474]	2	< 4.19	205	705	4.2	45.2	33.9	4.47	4.52											
COc1ccc(OC)c(S(=O)(=O)N(CCO)Cc2ccccc2)c1 [DNDI0003366067]	1	< 4.19	161		2.9	> 64	52.5	4.28	4.29											
CCCCCCCCCCCCCCCCOP(=O)([O-])OCC[N+](C)(C)C [Miltefosine, reference compound]														8.71	1.95	~5.30	5.00 to 5.30			
CCN(Cc1ccccc1)S(=O)(=O)c1ccccc1Br [DNDI0003365405]	2	< 4.19	88	235	4.2	> 64	33.9	4.47	4.86											
CCCCC(=O)Nc1cccnc1S(=O)(=O)CCOc1ccccc1 [DNDI0003363560]	1	4.49				29.7	32.4	4.49	4.83											
COc1ccc(OC)c(S(=O)(=O)N(Cc2ccccc2)C2CCNCC2)c1 [DNDI0003366094]	2	4.34	100	23	3.1	42.2	27.5	4.56	4.54											
CC(=O)Nc1ccc(S(=O)(=O)N(CCN(C)C)Cc2ccccc2)cc1 [DNDI0003366091]	1	< 4.19	95	42	3	> 64	> 64	< 4.19	< 4.19											
COc1ccc(Cl)cc1S(=O)(=O)NCCN(C)C [DNDI0003366089]	1	< 4.19	33		2.1	> 64	> 64	< 4.19	< 4.19											
CCN(Cc1ccc(F)cc1)S(=O)(=O)c1cc(Cl)ccc1OC [DNDI0003366065]	3	< 4.19	352		4.4	59.5	21.9	4.66	5.16											
COc1ccc(S(C)(=O)=O)cc1S(=O)(=O)N(Cc1ccc(F)cc1)Cc1ccc(F)cc1 [Compound 26]										> 64.6		3.9	> 64.6	1.29	5.89			296		
COc1ccc(C(=O)N2CCOCC2)cc1S(=O)(=O)N(Cc1ccccc1)CC(C)(C)C [Compound 45]										> 64.6		3.8	> 64.6	1	27.5				1600	2580
CONS(=O)(=O)c1cc(Cl)ccc1OC [DNDI0003364475]	1	< 4.19				> 64	> 64	< 4.19	< 4.19											
